In US8088822B2, “Use of fenretinide or bioactive derivatives thereof and pharmaceutical compositions comprising the same” (priority 2008, dated 2012):

Tests used:
[1] = test system: HL60 cells; assay: Mitochondrial transmembrane potential (MTP) assay, Rh123/PI, HL60 cells; format: cell-based; settings: serum-deprived quiescent versus proliferating HL60 cells, fenretinide
Experimental: HL60 cells were cultured in RPMI 1640 supplemented (i) with or (ii) without 10% fetal bovine serum to obtain proliferating and quiescent leukemia cells respectively. Serum-deprived quiescent leukemic cells and proliferating leukemic cells were then cultured in media containing 0.5% FBS, and treated with 1 μM and 2.5 μM fenretinide, and also with chemotherapeutics as controls, 20 μM idarubicin (IDA) and 5 μM cytarabine (Ara-C).
To examine the effects of fenretinide on proliferating and quiescent leukemia cells, HL60 cells were chosen as serum deprived quiescent leukemic cell model obtained when incubated in RPMI 1640 without serum for 48 h, with G0/G1 phase cells (being in quiescent state) accounting up to 59.9%. Serum-deprived quiescent leukemic cells and proliferating leukemic cells were then cultured in media containing 0.5% FBS, and treated with 1 μM and 2.5 μM fenretinide, and also with chemotherapeutics as controls, 20 μM idarubicin (IDA) and 5 μM cytarabine (Ara-C). […] Fenretinide induces intracellular production of ROS, lowers mitochondrial transmembrane potential (MTP), and eventually leads to apoptosis in a variety of malignancies. We measured MTP induced by fenretinide in proliferating and quiescent HL60 cells, as examined through rhodamine 123 and propidium iodide staining and followed by flow cytometry analysis. […] We further measured intracellular ROS abundance induced by fenretinide. […] After incubation with 1 μM and 2.5 μM fenretinide for 3 h, the ROS level of proliferating cells increased by 1.77 and 2.6 fold, respectively.

[2] = test system: CD34+CD38+ CML progenitor cells; assay: Apoptosis (Annexin V/7AAD, FACS) of CML progenitor cells; format: cell-based, human
From the text: (§1) Fresh bone marrow (BM) cells were obtained from 38 patients with CML and 5 non-leukemic donors, 25 AML, 17 ALL, and 8 normal specimens with informed consent according to the Declaration of Helsinki. Approval was obtained from Institutional Review Board at the School of Medicine in Shanghai Jiao Tong University. BM mononuclear cells were isolated by Ficoll density gradient centrifugation (Shanghai Second Reagent Factory, Shanghai, China). CD34^+ Cell were selected using EasySep® Human CD34 Positive Selection kit (Stem Cell Technologies, Vancouver, BC, Canada) according to the manufacturer's instructions. The purity of CD34 cells ranged between 92 and 98% in all samples detennined by flow cytometry. The CD34^+ cells were cultured in a serum-free medium (StemPro 34; Gibco BRL, Gaithersburg, Md.) supplemented with growth factors (PeproTech, London, United Kingdom) (20). The growth factors consisted of GM-CSF (200 pg/mL), G-CSF (1 ng/mL); SCF (200 pg/mL); LIF (50 pg/mL), MIP-1α (200 pg/mL) and IL-6 (1 ng/mL).
(§2) Primitive AML and CML subpopulations (CD34^+ cells) were identified using CD34-PE in combination with CD38-APC, and followed by double-labeling with 7AAD and Annexin V antibodies for apoptosis assessment. The CD34^+ cells were first stained with antibodies against the surface markers CD34-PE and CD38-APC (Beckman Coulter, Fullerton, Calif.) and incubated at room temperature for 15 minutes. Cells were then washed with cold PBS and resuspended in 200 μL annexin V 1×binding buffer (10 mM HEPES/NaOH, pH 7.4, 140 mM NaCl, 2.5 mM CaCl2), 5 μL AnnexinV-FITC (BD Phanningen, San Diego, Calif.) and 7-aminoactinomycin (7-AAD, 0.25 mg/mL) (Molecular Probes, Eugene, Oreg.). Subsequently, the samples were incubated at room temperature for 15 minutes and analyzed by flow cytometry.
It would be of significance to find out the subpopulations specifically targeted by fenretinide. We divided the CML patient specimens into mononuclear cells and CD34^+ cells. The CD34^+ CML cells are primitive cells including CML stem and progenitor cells. […]

[3] = test system: CD34+CD38− CML stem cells (LSC); assay: Apoptosis (Annexin V/7AAD, FACS) of CML stem cells; format: cell-based, human
From the text: as §1, §2
It would be of significance to find out the subpopulations specifically targeted by fenretinide. We divided the CML patient specimens into mononuclear cells and CD34^+ cells. The CD34^+ CML cells are primitive cells including CML stem and progenitor cells. Upon treated with fenretinide, CD34^+ CML cells were further subdivided into CD34^+CD38^− enriched with CML stem cells and CD34^+CD38^+ with CML progenitor cells. After gating on primitive CML subfractions, 7AAD and Annexin V antibodies were utilized for apoptosis assessment by FACS. […] The difference of apoptosis rates between CD34^+CD38^+ and CD34^+CD38^− cells was significant (p<0.001). The effects of the fenretinide exposures on the leukemia stem cells (LSC) and normal hematopoietic stem cells (HSC) in the CD34^+CD38^− cells were shown in a representative specimen (FIG. 3B). The specimens in 5 CML patients had the similar effects on the LSC and in 5 non-leukemic donors had the similar patterns as that of nonnal HSC.

[4] = test system: normal hematopoietic stem cells (HSC); assay: Apoptosis/toxicity in normal hematopoietic stem cells; format: cell-based, human; settings: representative specimen
From the text: as §1
Primitive AML and CML subpopulations (CD34^+ cells) were identified using CD34-PE in combination with CD38-APC, and followed by double-labeling with 7AAD and Annexin V antibodies for apoptosis assessment. […] Subsequently, the samples were incubated at room temperature for 15 minutes and analyzed by flow cytometry. […]

[5] = test system: normal hematopoietic CD34+ cells; assay: Apoptosis/viability of normal hematopoietic CD34+ cells; format: cell-based, human
From the text: as §1, §2
Primary acute leukemia cells from specimens including AML and ALL are mostly quiescent, especially for the subpopulations of leukemic CD34^+ cells (Guan and Hogge, 2000). To verify if this quiescent leukemia cells are sensitive to fenretinide, we compared the effects of fenretinide on primary leukemia versus normal specimens during short-term suspension culture. CD34^+ cells were isolated from primary acute leukemia specimens, and subjected to DNA content analysis through propidium iodide staining and followed by flow cytometry. The majority of isolated CD34^+ cells from AML and ALL were in G0/G1 phase of the cell cycle, indicating the quiescent feature of leukemia CD34^+ cells (FIG. 4A). Then, apoptosis profiles of AML CD34^+ cells and normal CD34^+ cells were examined through annexin-V FITC and 7AAD double staining (FIG. 4B).

[6] = test system: U937; assay: Apoptosis in AML cell line U937; format: cell-based; settings: U937, within 48 hours, alone or combined
Experimental: 2×10^5 cultured cells were used for evaluating apoptosis using an ApoAlert Annexin V-FITC Apoptosis Kit (BD Biosciences). Cells were washed once by PBS, resuspended in 200 μl Annexin-V binding buffer, and then stained with Annexin V-FITC 5 μl, PI 10 μl for 15 min at room temperature in the dark. Cells were subsequently analyzed by flow cytometry.
There are two observations that drive us in further exploring alternative therapeutic combinations. As illustrated in Example 6, proteasome inhibitors can potentate fenretinide-induced apoptosis in leukemia. […] The apoptosis rates were quite low when treated alone within 48 hours (nearly 5%), and the number doubled when treated by fenretinide and MG132.

## CC1=C(/C=C/C(C)=C/C=C/C(C)=C/C(=O)Nc2ccc(O)cc2)C(C)(C)CCC1 [fenretinide, N-(4-hydroxyphenyl)retinamide]
[1]
  mitochondrial transmembrane potential (MTP): more significant reduced MTP
[2]; 2 μM fenretinide
  apoptosis of CD34+CD38+ cells: 17.83%±6.01%
[2]; 4 μM fenretinide
  apoptosis of CD34+CD38+ cells: 30.60%±4.93%
[2]; 6 μM fenretinide
  apoptosis of CD34+CD38+ cells: 33.08%±19.43%
[3]; 2 μM fenretinide
  apoptosis of CD34+CD38− cells: 60.58%±2.76%
[3]; 4 μM fenretinide
  apoptosis of CD34+CD38− cells: 63.75%±8.49%
[3]; 6 μM fenretinide
  apoptosis of CD34+CD38− cells: 62.83%±9.72%
[3]; representative specimen
  reduction of LSC in the CD34+CD38− cells: 80.3%
[3]; representative specimen, fenretinide alone or co-treatment with imatinib
  apoptosis in the LSC (CML stem cells): 53.3%
[4]
  change in the cell proportion of normal HSC: 5.36%
[4]; fenretinide alone or co-treatment with imatinib
  apoptosis in normal HSC: 19.08%
[5]; 5 μM fenretinide
  viability of normal hematopoietic CD34+ cells: 97.1%
[5]; 7.5 μM fenretinide
  viability of normal hematopoietic CD34+ cells: 58.1%
[5]; from viability of normal CD34+ cells
  safe dose (presumed): below 5 μM
[5]; short-term suspension culture
  response of normal hematopoietic CD34+ cells: relative resistant
[6]
  apoptosis rate: ~5%
